Ends that are not written are not given here.
What was measured:
[1] = Cryo-EM of small unilamellar lipid vesicles incubated with gold-labelled peptide; settings: DOPC:DOPG (3:7) SUVs, peptide:lipid 1:250, 15 minutes
Procedure: For the labeling of LL-37 with 1.4 nm nanogold particles (Nanoprobes, Inc), 200 µM of the S37C peptide were reduced using 5 mM of Dithiothreitol (DTT) in the presence of 5 mM EDTA and 100 mM sodium phosphate, pH 7, at room temperature for 1 hour while shaking. The excess of DTT was removed using a 3 kD-cutoff ultrafiltration cell (Amicon, Millipore). Nanogold at 6 nmol concentration was incubated with the peptide at room temperature for 2 hours while shaking. To remove the excess of nanogold, the mixture was loaded onto a Superdex 75 10/300 GL column (GE Healthcare) with 150 mM NaCl and 20 mM sodium phosphate, pH 7. The fractions containing the labeled peptide were concentrated using a 3 kD-cutoff (Amicon, Millipore) ultrafiltration device. The DOPC:DOPG (3:7) SUVs (small unilamellar vesicles) were prepared using a mini-extruder (Avanti Polar Lipids, Inc). Their size and homogeneity was checked using dynamic light scattering (DLS). DOPC:DOPG vesicles were treated with nanogold labeled LL-37 (ratio of peptide to lipid 1:250).

E. coli K12 cells = assay: Cryo-electron microscopy of E. coli incubated with gold-labelled peptide; type: cell-based; settings: E. coli K12, 18 µM (80 µg/ml) labelled peptide, 37 °C, 80 minutes
Procedure: E. coli K12 cells were grown at 37 °C at 200 rpm up to an OD of 0.6, and labeled LL-37 nanogold was added to 1 ml culture to reach a final concentration of 18 µM (80 µg/ml). The cultures were further incubated at 37 °C while shaking at 300 rpm (Eppendorf Thermomixer, Hamburg, Germany). After 80 minutes, 200 μl of the sample were taken and cells were pelleted at 3000*g for 10 min at 4 °C. The cell pellet was resuspended using 15 μl of culture solution in order to concentrate the sample and reach a sufficiently high cell density for the visualization in the microscope.

[2] = Peptide-lipid overlay assay (lipid strips); type: binding; settings: 100 pmol lipid spots, LL-37 0.04 mg/ml, 1 h room temperature, anti-LL-37 HRP antibody, qualitative
Procedure: The lipid affinity of LL-37 was assessed using peptide-lipid overlay assays of commercially available lipid strips blotted with 100 pmol of biologically relevant lipids (Echelon Biosciences, Salt Lake City, UT), following the manufacturer’s instructions. Lipid strips were blocked with 1% fat-free milk in TBS (150 mM NaCl, 50 mM Tris-HCl, pH 7.6) for 1 h at room temperature and then incubated with LL-37 (0.04 mg/ml) dissolved in 10 mM NaHCO3, 100 mM NaCl, 5 mM sodium phosphate, pH 8, plus 1% fat-free milk in TBS for 1 h at room temperature. The lipid strips were first washed with TBS buffer three times, and then incubated overnight at 4 °C in a solution of TBS containing 1% fat free milk and the anti-LL-37 HRP-labelled antibody (Innovagen, Sweden) in a 1:2000 dilution. After being washed three times with TBS, the peptide was detected by chemoluminescence using the super-signal western femto maximum sensitivity substrate kit (Thermo Scientific, Pierce Biotechnology, Inc).

[3] = Analytical ultracentrifugation (AUC), equilibrium sedimentation; type: physicochemical; settings: 0.33 mg/ml (0.07 mM) in 50 mM phosphate buffer pH 7.2, 0.04% DDM, 18.000 rpm, 20°C, 230 nm; data not shown
Excerpt: Supplementa ry mat eria l to the paper:
Structural remodeling and oligomerization of human cathelicidin on membranes […]
by Enea Sancho-V aello, Patrice François, Eve-Julie Bonetti, Hauke Lilie, Sebastian Finger, Fernando Gil-Ortiz, Davi d Gil -Carton, Kornelius Zeth
Peptides, lipids and detergents
All peptides used in our study were chemically synthesized and purchased from Peptide2.0(www.peptide20.com), Proteogenix (www.ProteoGenix.fr) or Genecust (www. gen ecust.com) at purities of higher than 95%. Detergents used in this study are N - o c t yl -β-D-glucoside(Apollo Scientific limited), N-D o d e c yl -β-D-maltoside (Apollo Scientific limited), N-dodecylphosphocholine(Affymetrix) and N-dodec yl-N,N-dimethylamine-N-ox ide(Aff ymetrix ). The lipids 1,2- dioleoyl-sn-gl yc e r o -3- phosphocholine (DOPC), 1,2- dioleoyl-s n gl yc e r o -3- phosphoglycerol(DOPG) and cardiolipin (CL) were purchased from Avanti P olarLipids, Inc. (Alab aster, A L, USA). […]
Centrifugationruns were performed at 18.000 rpm and 20°C; data were collected at a wavelength of 230 nmusi ng a concentration of 0.33 mg/ml (0.07 mM) in 50 mM phosphate buffer, pH 7.2. […] The radial distribution of LL-37 at sedimentation equilibrium in the respective bufferwas linearized according to the Lamm equation 1and the slope dlnc/dr2 with c representingthe peptide concentration at the radial position r was determined experimentally. […]

[4] = Oligomerization by size exclusion chromatography (SEC); type: physicochemical
Procedure: The oligomeric state of the peptide in the absence and presence of detergents was characterized on Superdex75 10/300 GL column (GE Healthcare) at peptide concentrations of 0.7 (0.16 mM) or 3.7 mg/ml (0.83 mM) respectively. The column was equilibrated using buffer A containing 100 mM NaCl, 10 mM NaHCO3, 5 mM sodium phosphate, pH 6.8, for the detergent free sample. SEC in the presence of detergents was performed at 0.7 mg/ml (0.16 mM) of LL-37 in buffer A plus the following detergent concentrations: 0.2% LDAO (8.7 mM), 0.05% DDM (0.98 mM), 0.2% DPC (5.6 mM). Peptides were incubated with buffer A and buffer-detergent solutions for 30 minutes before 200 μl samples were loaded onto the column. The flow rate of the column was adjusted to 0.5 ml/min and all runs were performed at room temperature. The peptide retention time was monitored at 215 nm due to the absence of Trp and Tyr residues.

Q: With “gold-labelled LL-37: S37C mutant of LL-37 labeled at the C-terminus with 1.4 nm nanogold particles (LLGDFFRKSKEKIGKEFKRIVQRIKDFLRNLVPRTEC; also: labeled at the C-terminus with 1.4 nm nanogold particles, attachment not given here; UniProt P49913 134-170, looked up, variant S37C)” as the compound, how does the “Membrane perturbation of lipid vesicles (cryo-EM)” value [1] read?
A: The value was “no significant membrane perturbation”.

Q: What about the “Effect on E. coli membranes (cryo-EM)” value (E. coli K12 cells) of the same compound?
A: The value was “clear perforation of the outer but not of the inner membrane”.

Q: Which results are given for `CC[C@H](C)[C@H](NC(=O)[C@H](CCCCN)NC(=O)[C@H](CCC(=O)O)NC(=O)[C@H](CCCCN)NC(=O)[C@H](CO)NC(=O)[C@H](CCCCN)NC(=O)[C@H](CCCNC(=N)N)NC(=O)[C@H](Cc1ccccc1)NC(=O)[C@H](Cc1ccccc1)NC(=O)[C@H](CC(=O)O)NC(=O)CNC(=O)[C@H](CC(C)C)NC(=O)[C@@H](N)CC(C)C)C(=O)NCC(=O)N[C@@H](CCCCN)C(=O)N[C@@H](CCC(=O)O)C(=O)N[C@@H](Cc1ccccc1)C(=O)N[C@@H](CCCCN)C(=O)N[C@@H](CCCNC(=N)N)C(=O)N[C@H](C(=O)N[C@H](C(=O)N[C@@H](CCC(N)=O)C(=O)N[C@@H](CCCNC(=N)N)C(=O)N[C@H](C(=O)N[C@@H](CCCCN)C(=O)N[C@@H](CC(=O)O)C(=O)N[C@@H](Cc1ccccc1)C(=O)N[C@@H](CC(C)C)C(=O)N[C@@H](CCCNC(=N)N)C(=O)N[C@@H](CC(N)=O)C(=O)N[C@@H](CC(C)C)C(=O)N[C@H](C(=O)N1CCC[C@H]1C(=O)N[C@@H](CCCNC(=N)N)C(=O)N[C@H](C(=O)N[C@@H](CCC(=O)O)C(=O)N[C@@H](CO)C(=O)O)[C@@H](C)O)C(C)C)[C@@H](C)CC)C(C)C)[C@@H](C)CC` [LL-37]?
A: Interaction with PS (lipid overlay) ([2]; chemoluminescence): strong interactions; Binding to PC (lipid overlay) [2]: does not bind; Interaction with CL (lipid overlay) [2]: strong interactions; Interaction with PE (lipid overlay) [2]: strong interactions; Interaction with PG (lipid overlay) [2]: strong interactions; Interaction with PI (lipid overlay) [2]: do not interact; Interaction with PI-4 (lipid overlay) [2]: do not interact; Interaction with PI-4,5 (lipid overlay) [2]: do not interact; Interaction with phosphatidic-acid (lipid overlay) [2]: strong interactions; Interaction with sulfatide (lipid overlay) [2]: strong interaction; Recognition of PI-3, 4, 5 (lipid overlay) [2]: recognized; Molecular weight by AUC in DDM [3]: ~ 28 kD; Oligomeric state in SEC, dominating species ([4]; 0.16 mM (0.7 mg/ml) peptide, no detergent, Superdex75 10/300 GL, 100 mM NaCl, 10 mM NaHCO3, 5 mM sodium phosphate pH 6.8, room temperature, 215 nm): monomeric; Oligomeric state in SEC in the presence of detergents ([4]; 0.16 mM peptide with 0.2% LDAO, 0.2% DPC or 0.05% DDM, 30 min pre-incubation, buffer pH 6.8, room temperature): tetramers or hexamers; Oligomeric state in SEC (retention time range) ([4]; 0.83 mM (3.7 mg/ml) peptide, no detergent, Superdex75 10/300 GL, buffer pH 6.8, room temperature, 215 nm): tetramer or hexamer; Molecular weight in SEC in the presence of detergents ([4]; in the presence of DDM, DPC and LDAO): around 30 kD

Q: For LLGDFFRKSKEKIGKEFKRIVQRIKDF [LL-28], which “MIC against E. coli in the presence of detergent” value (E. coli) is on record?
A: The value was 6 µg/mL.

Reference: article PMC5684418, “Structural remodeling and oligomerization of human cathelicidin on membranes suggest fibril-like structures as active species” (Scientific Reports, 2017)
